These results are taken from patent US11878966B2, “Substituted 4-benzyl and 4-benzoyl piperidine derivates” (89BIO LTD, priority 2015, dated 2024).

SMILES strings stand for the structures. Counter-ions that a name gives are not always drawn.

In series [1] the target is T1, recombinant human baculovirus-expressed GST-tagged FASN (Homo sapiens, UniProt P49327).
T1 construct: GST; host or cells: baculovirus expression system (insect cells implied)
Nature of the series: FASN enzyme activity assay: fluorescence-based detection of CoA with CPM. Type of series: biochemical. The settings on record: 5 nM FASN, 150 μM NADPH, 10 μM acetyl-CoA, 25 μM malonyl-CoA, 90 minutes incubation. The procedure, abridged: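 GST-tagged human FASN (5 nM, baculovirus-expressed) in 50 mM HEPES pH 7.5 with 150 μM NADPH, 10 μM acetyl-CoA and 25 μM malonyl-CoA, 0.5% DMSO, started with malonyl-CoA and run 90 min. CoA was detected with CPM (30 min; ex 390/em 530 nm). IC50 came from sigmoidal variable-slope fits of % inhibition.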

T1 sequence (P49327 whole entry): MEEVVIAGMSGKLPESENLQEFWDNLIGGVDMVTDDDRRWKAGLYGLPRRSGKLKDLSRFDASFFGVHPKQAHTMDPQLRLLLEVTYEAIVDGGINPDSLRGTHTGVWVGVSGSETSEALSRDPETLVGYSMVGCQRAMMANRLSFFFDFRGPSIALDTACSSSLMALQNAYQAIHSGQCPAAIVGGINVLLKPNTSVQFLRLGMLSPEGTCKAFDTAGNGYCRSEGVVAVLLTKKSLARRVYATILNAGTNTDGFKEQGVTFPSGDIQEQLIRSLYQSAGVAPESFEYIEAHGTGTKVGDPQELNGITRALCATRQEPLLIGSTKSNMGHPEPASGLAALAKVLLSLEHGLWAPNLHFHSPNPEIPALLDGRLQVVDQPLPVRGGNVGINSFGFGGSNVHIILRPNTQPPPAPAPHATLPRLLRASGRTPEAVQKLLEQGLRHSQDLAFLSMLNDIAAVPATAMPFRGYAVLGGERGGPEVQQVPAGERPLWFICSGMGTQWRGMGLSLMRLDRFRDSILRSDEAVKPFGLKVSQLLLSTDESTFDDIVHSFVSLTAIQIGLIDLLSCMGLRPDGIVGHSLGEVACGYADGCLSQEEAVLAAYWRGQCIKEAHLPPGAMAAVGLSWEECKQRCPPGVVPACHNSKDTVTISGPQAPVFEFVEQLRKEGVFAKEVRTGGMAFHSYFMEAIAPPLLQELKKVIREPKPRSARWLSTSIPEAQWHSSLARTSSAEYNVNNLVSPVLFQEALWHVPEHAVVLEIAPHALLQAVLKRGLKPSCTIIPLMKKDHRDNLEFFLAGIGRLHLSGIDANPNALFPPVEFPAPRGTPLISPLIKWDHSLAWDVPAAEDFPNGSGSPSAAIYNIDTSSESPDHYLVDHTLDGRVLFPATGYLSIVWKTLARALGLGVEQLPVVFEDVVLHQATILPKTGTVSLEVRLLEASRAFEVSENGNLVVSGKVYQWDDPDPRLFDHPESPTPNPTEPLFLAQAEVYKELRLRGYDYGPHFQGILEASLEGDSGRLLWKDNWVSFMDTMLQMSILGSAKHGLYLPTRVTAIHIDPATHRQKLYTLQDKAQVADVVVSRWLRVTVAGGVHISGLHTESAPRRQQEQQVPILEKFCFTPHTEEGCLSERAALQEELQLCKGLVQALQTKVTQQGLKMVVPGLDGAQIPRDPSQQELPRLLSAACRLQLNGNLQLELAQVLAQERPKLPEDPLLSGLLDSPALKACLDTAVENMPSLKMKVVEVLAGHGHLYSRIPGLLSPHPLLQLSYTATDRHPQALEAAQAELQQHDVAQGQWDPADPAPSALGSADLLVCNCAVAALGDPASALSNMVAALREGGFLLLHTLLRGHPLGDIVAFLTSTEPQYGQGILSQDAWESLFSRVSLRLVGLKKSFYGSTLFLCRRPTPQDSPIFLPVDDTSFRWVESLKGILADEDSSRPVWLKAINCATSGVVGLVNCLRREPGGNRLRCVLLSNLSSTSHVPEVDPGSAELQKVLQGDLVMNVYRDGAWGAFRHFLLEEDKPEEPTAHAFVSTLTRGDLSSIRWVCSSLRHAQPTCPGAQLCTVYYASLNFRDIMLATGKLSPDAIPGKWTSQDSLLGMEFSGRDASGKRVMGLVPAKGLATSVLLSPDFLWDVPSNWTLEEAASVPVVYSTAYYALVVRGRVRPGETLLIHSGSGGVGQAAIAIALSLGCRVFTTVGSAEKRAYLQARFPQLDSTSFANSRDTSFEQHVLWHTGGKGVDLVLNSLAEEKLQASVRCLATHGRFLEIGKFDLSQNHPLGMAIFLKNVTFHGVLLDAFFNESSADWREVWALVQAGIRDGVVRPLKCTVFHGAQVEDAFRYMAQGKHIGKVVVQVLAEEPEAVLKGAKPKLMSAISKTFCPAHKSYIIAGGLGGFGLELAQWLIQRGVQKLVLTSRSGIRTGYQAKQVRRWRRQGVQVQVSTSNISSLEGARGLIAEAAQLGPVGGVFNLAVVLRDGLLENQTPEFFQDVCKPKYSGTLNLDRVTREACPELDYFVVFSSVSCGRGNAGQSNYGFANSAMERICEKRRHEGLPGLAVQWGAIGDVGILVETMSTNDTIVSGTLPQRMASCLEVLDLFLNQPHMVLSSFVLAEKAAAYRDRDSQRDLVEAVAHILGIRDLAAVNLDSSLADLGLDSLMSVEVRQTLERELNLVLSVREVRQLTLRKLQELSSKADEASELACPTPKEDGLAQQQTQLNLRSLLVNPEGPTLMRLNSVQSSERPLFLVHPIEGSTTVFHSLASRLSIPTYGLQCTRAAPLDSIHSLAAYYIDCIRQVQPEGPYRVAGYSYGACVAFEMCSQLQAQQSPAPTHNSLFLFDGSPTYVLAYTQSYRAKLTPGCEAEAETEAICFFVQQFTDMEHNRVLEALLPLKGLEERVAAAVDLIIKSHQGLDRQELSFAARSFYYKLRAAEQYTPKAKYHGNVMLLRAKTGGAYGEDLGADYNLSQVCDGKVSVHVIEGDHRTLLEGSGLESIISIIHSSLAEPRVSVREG

Consider `CCC(=O)N1CCC(C(C)c2ccc(-c3cnc4ccccc4c3)cc2)CC1` (centres unmarked) (as salt: HCl) [Example 39, 1-(4-(1-(4-(quinolin-3-yl)phenyl)ethyl)piperidin-1-yl)propan-1-one], for which the melting point (commonly the temperature, or range, at which the solid turns liquid) was in the range of 178 to 180 °C. `CCC(=O)N1CCC(C(C)c2ccc(-c3cnc4ccccc4c3)cc2)CC1` (single isomer, unassigned) (as salt: HCl) [Example 67, 1-{4-[1-(4-Quinolin-3-yl-phenyl)-ethyl]-piperidin-1-yl}-propan-1-one]: the melting point was 215 to 219 °C. In turn, `CCC(=O)N1CCC(C(C)c2ccc(-c3cnc4ccccc4c3)cc2)CC1` (single isomer, unassigned) (as salt: HCl) [Example 68, 1-{4-[1-(4-Quinolin-3-yl-phenyl)-ethyl]-piperidin-1-yl}-propan-1-one] showed a melting point of 219 to 221 °C. In turn, `CCC(=O)N1CCC(C(C)c2ccc(-c3ccc4c(c3)NCCC4)cc2)CC1` (centres unmarked) [Example 38, 1-(4-(1-(4-(1,2,3,4-tetrahydroquinolin-7-yl)phenyl)ethyl)piperidin-1-yl)propan-1-one] registered a melting point of 169 to 171 °C. Besides, the IC50 (usually the midpoint of a concentration-inhibition curve) in series [1] lay in the range of 1000 to 10000 nM. For `CCC(=O)N1CCC(C2(c3ccc(-c4cnc5ccccc5c4)cc3)CC2)CC1` [Example 40, 1-{4-[1-(4-quinolin-3-yl-phenyl)-cyclopropyl]-piperidin-1-yl}-propan-1-one], in that order: 153 to 155 °C and 1 to 99 nM. Take `C=C(c1ccc(-c2cnc3ccccc3c2)cc1)C1CCN(C(=O)C2CC2)CC1` [Example 41, Cyclopropyl-{4-[1-(4-quinolin-3-yl-phenyl)-vinyl]-piperidin-1-yl}-methanone]: the melting point is 100 to 102 °C. For the same molecule, the IC50 in series [1] is 1 to 99 nM. The molecule `COc1c(-c2ccc(CC3(C#N)CCN(C(=O)[C@H]4CCCO4)CC3)cc2)ccc2cccnc12` [Example 91, 4-[4-(8-Methoxyquinolin-7-yl)-benzyl]-1-((R)-tetrahydrofuran-2-carbonyl)-piperidine-4-carbonitrile] returned a melting point of 102 to 105 °C. In addition, the IC50 in series [1] was 1 to 99 nM. As to `CC(C)C(=O)N1CCC(O)(Cc2ccc(-c3ccc4cnccc4c3)cc2)CC1` [Example 147, 1-[4-Hydroxy-4-(4-isoquinolin-6-yl-benzyl)-piperidin-1-yl]-2-methyl-propan-1-one], the melting point is 175 °C. The IC50 in series [1] lay within 1000 to 10000 nM.

In the case of `CCC(=O)N1CCC(O)(Cc2ccc(-c3cnc4ccccc4c3)cc2)CC1` [Example 148, 1-(4-hydroxy-4-(4-(quinolin-3-yl)benzyl)piperidin-1-yl)propan-1-one], the melting point was 89 °C. Also, the IC50 in series [1] fell in the range of 1000 to 10000 nM. As for `CC(C)C(=O)N1CCC(O)(Cc2ccc(-c3cnc4ccccc4c3)cc2)CC1` [Example 149, 1-(4-hydroxy-4-(4-(quinolin-3-yl)benzyl)piperidin-1-yl)-2-methylpropan-1-one], the melting point turned out to be 168 °C. Also, the 50% inhibitory concentration (IC50) in series [1] was 1000 to 10000 nM. The molecule `CCC(=O)N1CCC(O)(Cc2ccc(-c3ccc4cccnc4c3)cc2)CC1` [Example 150, 1-(4-hydroxy-4-(4-(quinolin-7-yl)benzyl)piperidin-1-yl)propan-1-one] came in with a melting point of 171 °C. In series [1], the half-maximal inhibitory concentration (IC50) lay within 100 to 999 nM.

`CC(C)C(=O)N1CCC(O)(Cc2ccc(-c3ccc4cccnc4c3)cc2)CC1` [Example 151, 1-(4-hydroxy-4-(4-(quinolin-7-yl)benzyl)piperidin-1-yl)-2-methylpropan-1-one] registered a melting point of 153 °C. Further, the IC50 in series [1] was in the range of 1000 to 10000 nM. As to `CCC(=O)N1CCC(O)(Cc2ccc(-c3ccc4occc4c3)cc2)CC1` [Example 152, 1-(4-(4-(benzofuran-5-yl)benzyl)-4-hydroxypiperidin-1-yl)propan-1-one], the melting point was determined as 76 °C. In addition, the IC50 in series [1] was 1000 to 10000 nM.

`CC(C)C(=O)N1CCC(O)(Cc2ccc(-c3ccc4occc4c3)cc2)CC1` [Example 153, 1-(4-(4-(benzofuran-5-yl)benzyl)-4-hydroxypiperidin-1-yl)-2-methylpropan-1-one]: the melting point was found to be 129 °C. The half-inhibitory concentration (IC50) in series [1] lay within 1000 to 10000 nM. Taken in the same sequence, the figures for `CCC(=O)N1CCC(O)(Cc2ccc(-c3ccc4[nH]ccc4c3)cc2)CC1` [Example 154, 1-(4-(4-(1H-indol-5-yl)benzyl)-4-hydroxypiperidin-1-yl)propan-1-one] were 100 °C and 1000 to 10000 nM. Take `CCC(=O)N1CCC(C(C)(OC)c2ccc(-c3ccc4cccnc4c3)cc2)CC1` (centres unmarked) [Example 212, 1-{4-[1-Methoxy-1-(4-quinolin-7-yl-phenyl)-ethyl]-piperidin-1-yl}-propan-1-one]: the IC50 in series [1] was 1 to 99 nM. On to `COC(C)(c1ccc(-c2ccc3cccnc3c2)cc1)C1CCN(C(=O)C2CC2)CC1` (centres unmarked) [Example 213, Cyclopropyl-{4-[1-methoxy-1-(4-quinolin-7-yl-phenyl)-ethyl]-piperidin-1-yl}-methanone], for which, in series [1], the IC50 was in the range of 100 to 999 nM. `CCOC(C)(c1ccc(-c2ccc3cccnc3c2)cc1)C1CCN(C(=O)CC)CC1` (centres unmarked) [Example 214, 1-{4-[1-Ethoxy-1-(4-quinolin-7-yl-phenyl)-ethyl]-piperidin-1-yl}-propan-1-one]: in series [1], the IC50 is 100 to 999 nM.

On to `CCOC(C)(c1ccc(-c2ccc3cccnc3c2)cc1)C1CCN(C(=O)C2CC2)CC1` (centres unmarked) [Example 215, Cyclopropyl-{4-[1-ethoxy-1-(4-quinolin-7-yl-phenyl)-ethyl]-piperidin-1-yl}-methanone], for which, in series [1], the IC50 fell in the range of 100 to 999 nM.

On to `CCC(=O)N1CCC(C(CC)(OC)c2ccc(-c3ccc4cccnc4c3)cc2)CC1` (centres unmarked) [Example 216, 1-{4-[1-Methoxy-1-(4-quinolin-7-yl-phenyl)-propyl]-piperidin-1-yl}-propan-1-one], for which, in series [1], the IC50 was in the range of 1000 to 10000 nM. Turning to `CCC(OC)(c1ccc(-c2ccc3cccnc3c2)cc1)C1CCN(C(=O)C2CC2)CC1` (centres unmarked) [Example 217, Cyclopropyl-{4-[1-methoxy-1-(4-quinolin-7-yl-phenyl)-propyl]-piperidin-1-yl}-methanone], in series [1], the half-maximal inhibitory concentration (IC50) lay within 1000 to 10000 nM. Same read-out and setting: under `CCC(=O)N1CCC(Cc2ccc(-c3cnc4ccccc4c3)cc2)C(=O)C1` (centres unmarked) [Example 220, 1-Propionyl-4-(4-quinolin-3-yl-benzyl)-piperidin-3-one] stands 100 to 999 nM; under `CCC(=O)N1CCC(F)(C(=O)c2ccc(-c3ccc4cccnc4c3C)cc2)CC1` [Example 222, 1-{4-Fluoro-4-[4-(8-methylquinolin-7-yl)-benzoyl]-piperidin-1-yl}-propan-1-one], 1000 to 10000 nM. Turning to `CCC(=O)N1CCC(F)(C(O)c2ccc(-c3ccc4cccnc4c3C)cc2)CC1` (centres unmarked) [Example 223], the concentration for half-maximal inhibition (IC50) in series [1] lay within 1 to 99 nM. For `O=C([C@H]1CCCO1)N1CC[C@@H](Cc2ccc(-c3cnc4ccccc4c3)cc2)[C@H](O)C1` [Example 224, [trans-3-Hydroxy-4-(4-quinolin-3-yl-benzyl)-piperidin-1-yl]-(R)-tetrahydrofuran-2-yl-methanone], the half-maximal inhibitory concentration (IC50) in series [1] fell in the range of 1 to 99 nM. Still for that read-out and setting: the figure for `CCC(=O)N1CCC(F)(C(OC)c2ccc(-c3ccc4cccnc4c3C)cc2)CC1` (centres unmarked) [Example 225, 1-(4-Fluoro-4-{methoxy-[4-(8-methyl-quinolin-7-yl)-phenyl]-methyl}-piperidin-1-yl)-propan-1-one] is 1 to 99 nM; for `CCC(=O)N1CCC(F)(C(OCCOC)c2ccc(-c3ccc4cccnc4c3C)cc2)CC1` (centres unmarked) [Example 226, 1-(4-Fluoro-4-{(2-methoxy-ethoxy)-[4-(8-methyl-quinolin-7-yl)-phenyl]-methyl}-piperidin-1-yl)-propan-1-one] it is 1 to 99 nM. Same read-out and setting: under `CCC(=O)N1CCC(F)(C(OCCN2CCOCC2)c2ccc(-c3ccc4cccnc4c3C)cc2)CC1` (centres unmarked) [Example 227, 1-{4-Fluoro-4-[[4-(8-methyl-quinolin-7-yl)-phenyl]-(2-morpholin-4-yl-ethoxy)-methyl]-piperidin-1-yl}-propan-1-one] stands 1 to 99 nM; under `CCNC(=O)N1CCC(F)(Cc2ccc(-c3ccc4cccnc4c3C)cc2)CC1` [Example 228, N-ethyl-4-fluoro-4-[[4-(8-methyl-7-quinolyl)phenyl]methyl]piperidine-1-carboxamide], 1 to 99 nM. For `CCNC(=O)N1CCC(Cc2ccc(-c3ccc4cccnc4c3C)cc2)CC1` [Example 229, N-ethyl-4-[[4-(8-methyl-7-quinolyl)phenyl]methyl]piperidine-1-carboxamide], the IC50 in series [1] lay in the range of 1 to 99 nM. On the same count and under the same terms, under `CCNC(=O)N1CCC(Cc2ccc(-c3ccc4cccnc4c3OC)cc2)CC1` [Example 230, N-ethyl-4-[[4-(8-methoxy-7-quinolyl)phenyl]methyl]piperidine-1-carboxamide] stands 1 to 99 nM; under `CONC(=O)N1CCC(Cc2ccc(-c3ccc4cccnc4c3C)cc2)CC1` [Example 231, N-methoxy-4-[[4-(8-methyl-7-quinolyl)phenyl]methyl]piperidine-1-carboxamide], 1 to 99 nM; under `CCONC(=O)N1CCC(Cc2ccc(-c3ccc4cccnc4c3C)cc2)CC1` [Example 232, N-ethoxy-4-[[4-(8-methyl-7-quinolyl)phenyl]methyl]piperidine-1-carboxamide], 1 to 99 nM. Consider `Cc1c(-c2ccc(CC3CCN(C(=O)N(C)C)CC3)cc2)ccc2cccnc12` [Example 233, N,N-dimethyl-4-[[4-(8-methyl-7-quinolyl)phenyl]methyl]piperidine-1-carboxamide], for which, in series [1], the IC50 lay in the range of 1 to 99 nM.

On to `Cc1c(-c2ccc(CC3CCN(C(=O)N4CCCC4)CC3)cc2)ccc2cccnc12` [Example 234, [4-[[4-(8-methyl-7-quinolyl)phenyl]methyl]-1-piperidyl]-pyrrolidin-1-yl-methanone], for which the half-inhibitory concentration (IC50) in series [1] is 1 to 99 nM.
